Results on three compounds are retold here after ChEMBL document CHEMBL1135895, “Stereochemistry at phosphorus of the reaction catalyzed by myo-inositol monophosphatase” (J Med Chem, 2002).

The nature of series [1]: IMPase-catalyzed hydrolysis at pH 9.00 at 25 degrees Centigrade. The format is ADME. The conditions noted are these: for Km / k cat: buffer.
A short description of series [2]: Oxidation catalyzed by inositol dehydrogenase at pH 9.13. The format is ADME.

The Km is the substrate concentration at which the rate is half of its maximum. Take `O=P(O)(O)OC1C(O)C(O)C(O)C(O)C1O` (stereo not drawn): in series [1], the Km was 110 µM and the k cat amounted to 0.48 s⁻¹.
A word on the Ki: it is a dissociation constant, usually derived from enzyme kinetics or from competition with a known ligand. Read a high Ki as weaker binding. As for `OC1C(O)C(O)C(OP(O)(O)=S)C(O)C1O` (stereo not drawn), in series [1], affinity was put at a Ki of 1140 µM, the Km stood at 2070 µM and the k cat was determined as 0.185 s⁻¹.
For `O[C@H]1[C@H](O)[C@@H](O)[C@H](O)[C@@H](O)[C@H]1O` [INOSITOL], in series [2], the Km amounted to 580 µM, the k cat worked out at 13.3 s⁻¹ and the “k cat/Km” value is 23100 M⁻¹ s⁻¹.
